What all share (assay): Bliss interaction score (quartile over a dose matrix) (fitness difference); higher = more antagonism (negative = synergy)
One assay deals with B. subtilis 168. The procedure, abridged:
(§1)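 Quartiles of the Bliss score were taken over technical, biological and donor/recipient replicates. That score is observed fitness minus the product of the single-drug fitness values, which were inferred from combination data. Fitness itself is OD595 at entry into stationary phase divided by the plate's robust no-drug mean, with a cap at 1.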

The next assay has as its system S. aureus DSM 20231. In a few lines:
as §1

For the next assay, the system named is S. aureus Newman. In a few lines:
as §1

The test system of another assay is S. pneumoniae D39V. The procedure, abridged:
as §1

Structures are written as SMILES.
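Note: first quartile when negative (synergy) and third quartile when positive (antagonism).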

Turning to `CC(=O)O[C@H]1C[C@@]2(C)[C@@H](C[C@@H](O)[C@H]3[C@@]4(C)CC[C@@H](O)[C@@H](C)[C@@H]4CC[C@@]32C)/C1=C(\CCC=C(C)C)C(=O)O` [Fusidic acid] + CN(C)c1cc(NC(=O)CNC(C)(C)C)c(O)c2c1C[C@H]1C[C@H]3[C@H](N(C)C)C(O)=C(C(N)=O)C(=O)[C@@]3(O)C(O)=C1C2=O [Tigecycline], the Bliss interaction score was 0.074 in the assay on B. subtilis 168, -0.0504 in the assay with S. aureus DSM 20231, 0.0375 with S. aureus Newman and -0.0713 with S. pneumoniae D39V.

With `CC(=O)OC[C@H]1O[C@@H]([S-])[C@H](OC(C)=O)[C@@H](OC(C)=O)[C@@H]1OC(C)=O.CCP(CC)CC.[Au+]` [Auranofin] + CC[C@H]1OC(=O)[C@H](C)C(=O)[C@H](C)[C@@H](O[C@@H]2O[C@H](C)C[C@H](N(C)C)[C@H]2O)[C@](C)(OC)C[C@@H](C)C(=O)[C@H](C)[C@H]2N(CCCCn3cnc(-c4cccnc4)c3)C(=O)O[C@]12C [Telithromycin], the Bliss interaction score in the assay on B. subtilis 168 was -0.0304; in the assay with S. aureus DSM 20231, 0.0187; in the assay with S. aureus Newman, 0.0309; in the assay with S. pneumoniae D39V, 0.0324.

As to `N[C@@H]1CONC1=O` [CycloserineD] + CO[C@H]1/C=C/O[C@@]2(C)Oc3c(C)c(O)c4c(O)c(c(/C=N/N5CCN(C)CC5)c(O)c4c3C2=O)NC(=O)/C(C)=C\C=C\[C@H](C)[C@H](O)[C@@H](C)[C@@H](O)[C@@H](C)[C@H](OC(C)=O)[C@@H]1C [Rifampicin], the Bliss interaction score in the assay on B. subtilis 168 was 0.0563; in the assay on S. aureus DSM 20231 it was -0.0935; with S. aureus Newman it was 0.0463; in the assay on S. pneumoniae D39V, 0.163.

Consider `O=C(O[C@@H]1Cc2c(O)cc(O)cc2O[C@@H]1c1cc(O)c(O)c(O)c1)c1cc(O)c(O)c(O)c1` [EGCG] + CC[C@H]1OC(=O)[C@H](C)[C@@H](O[C@H]2C[C@@](C)(OC)[C@@H](O)[C@H](C)O2)[C@H](C)[C@@H](O[C@@H]2O[C@H](C)C[C@H](N(C)C)[C@H]2O)[C@](C)(O)C[C@@H](C)C(=O)[C@H](C)[C@@H](O)[C@]1(C)O [Erythromycin], for which the Bliss interaction score in the assay on B. subtilis 168 was 0.0527; in the assay with S. aureus DSM 20231, -0.0558; in the assay on S. aureus Newman, -0.0582; in the assay with S. pneumoniae D39V, 0.0597.

With `CC(=O)O[C@H]1C[C@@]2(C)[C@@H](C[C@@H](O)[C@H]3[C@@]4(C)CC[C@@H](O)[C@@H](C)[C@@H]4CC[C@@]32C)/C1=C(\CCC=C(C)C)C(=O)O` [Fusidic acid] + C[C@H]1COc2c(N3CCN(C)CC3)c(F)cc3c(=O)c(C(=O)O)cn1c23 [Levofloxacin], the Bliss interaction score with B. subtilis 168 was 0.034; with S. aureus DSM 20231, 0.0375; in the assay on S. aureus Newman it was 0.0554; in the assay on S. pneumoniae D39V, 0.119.

Turning to `C[C@@H](O)[C@H]1C(=O)N2C(C(=O)O)=C(SCCNC=N)C[C@H]12` [Imipenem] + COc1cc(Cc2cnc(N)nc2N)cc(OC)c1OC [Trimethoprim], the Bliss interaction score in the assay on B. subtilis 168 is -0.127; with S. aureus DSM 20231, -0.0457; in the assay with S. aureus Newman it was -0.0308; in the assay with S. pneumoniae D39V, 0.153.

As for `N[C@@H]1CONC1=O` [CycloserineD] + CCC(C)C1C(=O)NC(=C)C(=O)NC(C(=O)NC(CSCC(C(=O)N1)NC(=O)/C(=C/C)/NC(=O)C(C(C)CC)N)C(=O)NC2C(SCC(NC(=O)CNC(=O)C3CCCN3C2=O)C(=O)NC(CCCCN)C(=O)NC4C(SCC(NC(=O)CNC(=O)C(NC(=O)C(NC(=O)C(NC(=O)CNC4=O)C)CC(C)C)CCSC)C(=O)NC(CC(=O)N)C(=O)NC(CCSC)C(=O)NC(CCCCN)C(=O)NC5C(SCC6C(=O)NC(C(=O)NC(CSC(C(C(=O)N6)NC(=O)C(NC5=O)C)C)C(=O)NC(CO)C(=O)NC(C(C)CC)C(=O)NC(CC7=CN=CN7)C(=O)NC(C(C)C)C(=O)NC(=C)C(=O)NC(CCCCN)C(=O)O)CC8=CN=CN8)C)C)C)CC(C)C [Nisin], the Bliss interaction score amounted to 0.0525 in the assay with B. subtilis 168 (main component drawn), 0.193 in the assay on S. aureus DSM 20231 (main component drawn), 0.0401 in the assay on S. aureus Newman (main component drawn) and 0.0554 in the assay on S. pneumoniae D39V (main component drawn).

`CC(=O)OC[C@H]1O[C@@H]([S-])[C@H](OC(C)=O)[C@@H](OC(C)=O)[C@@H]1OC(C)=O.CCP(CC)CC.[Au+]` [Auranofin] + Cc1ncc([N+](=O)[O-])n1CCO [Metronidazole]: the Bliss interaction score in the assay with B. subtilis 168 was -0.0357; in the assay on S. aureus DSM 20231 it was -0.046; in the assay on S. aureus Newman, -0.137; with S. pneumoniae D39V, 0.133.

Take `CC(=O)OC[C@H]1O[C@@H]([S-])[C@H](OC(C)=O)[C@@H](OC(C)=O)[C@@H]1OC(C)=O.CCP(CC)CC.[Au+]` [Auranofin] + O=C(O)[C@H]1/C(=C/CO)O[C@@H]2CC(=O)N21 [Clavulanic]: the Bliss interaction score in the assay with B. subtilis 168 is -0.0681; in the assay on S. aureus DSM 20231 it was -0.188; in the assay on S. aureus Newman it was 0.167; in the assay with S. pneumoniae D39V, -0.0729.

Consider `CCC[C@@H]1C[C@@H](C(=O)N[C@@H]([C@H]2O[C@H](SC)[C@H](O)[C@@H](O)[C@H]2O)[C@H](C)Cl)N(C)C1` [Clindamycin] + CC[C@H]1OC(=O)[C@H](C)C(=O)[C@H](C)[C@@H](O[C@@H]2O[C@H](C)C[C@H](N(C)C)[C@H]2O)[C@](C)(OC)C[C@@H](C)C(=O)[C@H](C)[C@H]2N(CCCCn3cnc(-c4cccnc4)c3)C(=O)O[C@]12C [Telithromycin], for which the Bliss interaction score in the assay on B. subtilis 168 is 0.0609; in the assay on S. aureus DSM 20231, 0.0256; in the assay with S. aureus Newman it was -0.0812; in the assay with S. pneumoniae D39V, 0.106.

For the molecule `CCC[C@@H]1C[C@@H](C(=O)N[C@@H]([C@H]2O[C@H](SC)[C@H](O)[C@@H](O)[C@H]2O)[C@H](C)Cl)N(C)C1` [Clindamycin] + CC1(C)S[C@@H]2[C@H](NC(=O)Cc3ccccc3)C(=O)N2[C@H]1C(=O)O [PenicillinG], the Bliss interaction score in the assay on B. subtilis 168 was 0.0383; with S. aureus DSM 20231 it was 0.0609; in the assay with S. aureus Newman it was -0.0587; with S. pneumoniae D39V, 0.0611.

As to `CCC[C@@H]1C[C@@H](C(=O)N[C@@H]([C@H]2O[C@H](SC)[C@H](O)[C@@H](O)[C@H]2O)[C@H](C)Cl)N(C)C1` [Clindamycin] + CN[C@H](CC(C)C)C(=O)N[C@H]1C(=O)N[C@@H](CC(N)=O)C(=O)N[C@H]2C(=O)N[C@H]3C(=O)N[C@H](C(=O)N[C@H](C(=O)O)c4cc(O)cc(O)c4-c4cc3ccc4O)[C@H](O[C@H]3C[C@](C)(N)[C@@H](O)[C@H](C)O3)c3ccc(c(Cl)c3)Oc3cc2cc(c3O[C@@H]2O[C@H](CO)[C@@H](O)[C@H](O)[C@H]2O[C@H]2C[C@](C)(NCc3ccc(-c4ccc(Cl)cc4)cc3)[C@@H](O)[C@H](C)O2)Oc2ccc(cc2Cl)[C@H]1O [Oritavancin], the Bliss interaction score with B. subtilis 168 turned out to be 0.0359; in the assay on S. aureus DSM 20231, 0.0257; in the assay on S. aureus Newman, 0.0703; in the assay on S. pneumoniae D39V, 0.0382.

Regarding `CC(=O)OC[C@H]1O[C@@H]([S-])[C@H](OC(C)=O)[C@@H](OC(C)=O)[C@@H]1OC(C)=O.CCP(CC)CC.[Au+]` [Auranofin] + CO[C@@H]1[C@@H](OC(N)=O)[C@@H](O)[C@H](Oc2ccc3c(O)c(NC(=O)c4ccc(O)c(CC=C(C)C)c4)c(=O)oc3c2C)OC1(C)C [Novobiocin], the Bliss interaction score in the assay with B. subtilis 168 is -0.0665; in the assay with S. aureus DSM 20231, -0.0224; with S. aureus Newman it was 0.105; in the assay on S. pneumoniae D39V, 0.0612.

In the case of `O=C(N[C@H](CO)[C@H](O)c1ccc([N+](=O)[O-])cc1)C(Cl)Cl` [Chloramphenicol] + N[C@@H]1CONC1=O [CycloserineD], the Bliss interaction score with B. subtilis 168 is 0.0478; in the assay with S. aureus DSM 20231 it was -0.168; in the assay on S. aureus Newman, -0.144; in the assay on S. pneumoniae D39V, 0.141.

The values above are taken from the supplement of paper PMC10627819.
